According to patent publication US20240391904A1, “DIHYDROPYRIMIDINE BASED COMPOUND, PREPARATION METHOD THEREFOR AND USE OF THEREOF” (CHENGDU SHIBEIKANG BIOMEDICAL TECHNOLOGY CO., LTD., priority 2021, published 2024):
Marks after values point to notes of the source that are not given here.

How the values were obtained:
KM mice = test: Mouse cough test (ammonia-induced coughing); type: in vivo; conditions: for Number of Coughs (time): mice; for reduction in the number of coughs at 3 mg/kg: compared with model group; for duration of the cough suppression action: 30 to 120 min after administration
Source text: Compounds of Example 1-24 (synthesized in the inventor's laboratory), positive control drug (gefapixant, batch No: 01030-210326-2-1, purchased from Holder Pharmaceuticals), the compound of Comparative Example 1 (synthesized in the inventor's laboratory).
Healthy adult KM mice, half of them are male and half of them are female, 6 per group, weighing about 28-30 g.
Most of the animal coughing models currently reported in the literatures use mechanical, chemical and electrical stimulations to stimulate the nerves and receptors of the animals to trigger coughing. According to the characteristics of the candidate compounds and the existing similar target compounds for reference, the method of concentrated ammonia induction was initially chosen to establish the cough modeling test in mice.
Preparation of 50% ammonia solution: 2.5 ml of ammonia was dissolved in […] of a 0.9% sodium chloride solution for injection and mixed evenly.
Preparation of a solution of the compound of Comparative Example 1: 9 mg of the compound of Comparative Example 1 was weighed and dissolved in 3 ml of a 0.5% CMC-Na solution, and mixed evenly to prepare a 3 mg/ml solution.
Preparation of a solution of the example compounds: 9 mg of the example compound was weighed and dissolved in 3 ml of a 0.5% CMC-Na solution, and mixed evenly to prepare a 3 mg/ml solution.
Grouping: a positive control group, a Comparative Example 1 group, Example 1 group-Example 24 group, and a model group were set up. Six KM mice were taken from each group and administered by gavage; here, the Comparative Example 1 group was given the compound of Comparative Example 1, the positive control group was given the positive control drug (gefapixant, commercially purchased), the Example groups were given the compounds prepared in the corresponding Examples, with each group given one of three dosages: 30 mg/kg, […], and 3 mg/kg; and the model group was given the same volume of 0.5% CMC-Na solution.
30 min, 60 min or 120 min after administration, the mice were placed in a 500 ml beaker with a cotton ball (weight 100±5 mg) containing 0.3 ml of 50% ammonia.
(1) Judgment criteria of coughing: coughing was manifest in contraction of abdominal muscles or chest contraction, with mouth wide opening and a coughing sound.
(2) The number of coughs (times) within 3 min was recorded with a stopwatch, and the data were statistically analyzed by software, with the data in each group shown in mean±standard deviation. A one-way analysis of variance among the groups was conducted, and P<0.05 was considered a difference having a statistical significance.

human P2X3 receptor = biological target: T1, human P2X3 receptor (Homo sapiens, UniProt P56373); test: In vitro bioactivity evaluation: FLIPR antagonist mode, HEK 293 cells stably transfected with human P2X3 receptor, BZATP agonist
T1 sequence (P56373 1-397): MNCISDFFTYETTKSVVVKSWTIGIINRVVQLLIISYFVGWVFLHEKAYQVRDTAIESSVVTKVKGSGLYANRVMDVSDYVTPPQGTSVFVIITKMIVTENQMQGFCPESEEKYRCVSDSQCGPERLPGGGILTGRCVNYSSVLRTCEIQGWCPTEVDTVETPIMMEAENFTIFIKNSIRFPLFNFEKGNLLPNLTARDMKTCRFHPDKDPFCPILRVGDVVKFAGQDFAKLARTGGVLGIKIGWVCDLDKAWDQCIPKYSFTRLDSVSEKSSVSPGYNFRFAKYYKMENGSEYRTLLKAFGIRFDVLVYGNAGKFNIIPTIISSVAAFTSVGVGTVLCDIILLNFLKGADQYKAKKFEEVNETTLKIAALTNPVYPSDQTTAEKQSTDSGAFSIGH
Procedure: Cell culture medium: DMEM high glucose; 10% FBS; 1% PenStrep.
The Petri dish was placed in an incubator for 1-3 minutes or until the cells were digested, 3 mL of a complete medium was then added to terminate the digestion, and the cell density was determined by a cell counter. • 2) After centrifugation at 1000 rpm/min for 5 min, the cells were resuspended in a growth medium and the volume of the suspension was adjusted to reach a cell density of 4×10^5 cells/mL (1×10^4 cells/25 μL). • 3) 10 μL of 5× Matrigel was added into a black microplate, and the microplate was placed in an incubator for 15 min. The microplate was removed and invertedly centrifuged at 300 g/min for 30 s to remove the 5× Matrigel.

[1] = 30 mg/kg, 30 min after administration
[2] = 30 mg/kg by gavage, 30 min after administration, coughs within 3 min, ammonia-induced
[3] = 3 mg/kg by gavage, 60 min after administration, coughs within 3 min
[4] = 10 mg/kg by gavage, 60 min after administration, coughs within 3 min
[5] = 30 mg/kg by gavage, 60 min after administration, coughs within 3 min (Table 5)
[6] = 30 mg/kg by gavage, 60 min after administration, coughs within 3 min (Table 6)
[7] = 30 mg/kg by gavage, 120 min after administration, coughs within 3 min

Row | SMILES | cough suppressing effect compared with the positive compound (KM mice; [1]) | Number of Coughs (time) (KM mice; [2]) | IC50 (human P2X3 receptor) [nM] | further results
1 | COC(=O)C(C)(C)Cn1c(=O)cc(Nc2ccc(Oc3cnccn3)cc2)n(Cc2ccc(Cl)cc2)c1=O [Compound 4] | stronger than that of the positive compound | 15.61** time | < 10 | –
2 | COC(=O)C1(Cn2c(=O)cc(Nc3ccc(Oc4ccccn4)cc3)n(Cc3ccc(Cl)cc3)c2=O)CC1 [Compound 14] | – | 32.17 time | 10.1 to 50 | –
3 | C[C@@H](Cn1c(=O)cc(Nc2ccc(Oc3cnccn3)cc2)n(Cc2ccc(Cl)cc2)c1=O)C(=O)O [Compound 2] | – | 27.67* time | – | –
4 | C[C@@H](Cn1c(=O)cc(Nc2ccc(Oc3ccc(Cl)cn3)cc2)n(Cc2ccc(Cl)cc2)c1=O)C(=O)NS(C)(=O)=O [Compound 21] | – | 18.83** time | – | –
5 | CC(C)(Cn1c(=O)cc(Nc2ccc(Oc3cnccn3)cc2)n(Cc2ccc(Cl)cc2)c1=O)C(=O)O [Compound 5] | – | 33.67 time | – | –
6 | C[C@@H](Cn1c(=O)cc(Nc2ccc(Oc3ccccn3)cc2)n(Cc2ccc(C(F)(F)F)cc2)c1=O)C(=O)NS(C)(=O)=O [Compound 18] | – | 20.57** time | – | –
7 | C[C@@H](Cn1c(=O)cc(Nc2ccc(Oc3cnccn3)cc2)n(Cc2ccc(Cl)cc2)c1=O)C(=O)NS(C)(=O)=O [Compound 3] | stronger than that of the positive compound | 16.21** time | 10.1 to 50 | reduction in the number of coughs at 3 mg/kg (KM mice; 60 min after administration): statistically significant (P<0.01) reduction in the number of coughs; cough suppressing efficacy at 10 mg/kg (KM mice; 60 min after administration): improved cough suppressing efficacy than the positive control drug; duration of the cough suppression action (KM mice; 30 mg/kg): significantly prolonged compared with that of the compound of Comparative Example 1; Number of Coughs (time) (KM mice; [3]): 21.14** time; Number of Coughs (time) (KM mice; [4]): 19.83**^Δ time; Number of Coughs (time) (KM mice; [5]): 16.02** time; Number of Coughs (time) (KM mice; [6]): 16.02** time; Number of Coughs (time) (KM mice; [7]): 15.13**^Δ time
8 | C[C@@H](Cn1c(=O)cc(Nc2ccc(Oc3ccccc3)cc2)n(Cc2ccc(Cl)cc2)c1=O)C(=O)NS(C)(=O)=O [Compound 23] | – | 34.67 time | 50.1 to 100 | –
9 | CC(C)(Cn1c(=O)cc(Nc2ccc(Oc3ccccn3)cc2)n(Cc2ccc(Cl)cc2)c1=O)C(=O)O [Compound 10] | stronger than that of the positive compound | 17.20** time | < 10 | duration of the cough suppression action (KM mice; 30 mg/kg): short duration of action; cough suppressing effect at 60 min (KM mice; 30 mg/kg, 60 min after administration): no cough suppressing effect at 60 min; Number of Coughs (time) (KM mice; [5]): 40.17 time
10 | CC(C)(Cn1c(=O)cc(Nc2ccc(Oc3cnccn3)cc2)n(Cc2ccc(Cl)cc2)c1=O)C(=O)NS(C)(=O)=O [Compound 6] | stronger than that of the positive compound | 17.81** time | 10.1 to 50 | –
11 | COC(=O)C(C)(C)Cn1c(=O)cc(Nc2ccc(Oc3ccccn3)cc2)n(Cc2ccc(Cl)cc2)c1=O [Compound 11] | – | 31.00 time | 10.1 to 50 | –
12 | C[C@@H](Cn1c(=O)cc(Nc2ccc(Oc3ccc(OC(F)(F)F)cn3)cc2)n(Cc2ccc(Cl)cc2)c1=O)C(=O)NS(C)(=O)=O [Compound 19, (S)-3-(3-(4-chlorobenzyl)-2,6-dioxo-4-(4-(5-((5-trifluoromethoxy)pyridin-2-yl)oxyphenyl)amino)-3,6-dihydropyrimidin-1(2H)-yl)-2-methyl-N-(sulfonyl)propionamide group] | stronger than that of the positive compound | 17.62** time | – | –
13 | C[C@@H](Cn1c(=O)cc(Nc2ccc(Oc3ncccc3F)cc2)n(Cc2ccc(Cl)cc2)c1=O)C(=O)O [Comparative Example 1, reference compound] | – | 25.61* time | 10.1 to 50 | cough suppressing effect at 120 min (KM mice; 30 mg/kg, 120 min after administration): did not have a significant cough suppressing effect at 120 min; Number of Coughs (time) (KM mice; [6]): 24.12** time; Number of Coughs (time) (KM mice; [7]): 44.17 time
14 | O=C(O)C1(Cn2c(=O)cc(Nc3ccc(Oc4ccccn4)cc3)n(Cc3ccc(Cl)cc3)c2=O)CC1 [Compound 13] | – | 25.60 time | 10.1 to 50 | –
15 | C[C@@H](Cn1c(=O)cc(Nc2ccc(Oc3ccc(OC(F)F)cn3)cc2)n(Cc2ccc(Cl)cc2)c1=O)C(=O)NS(C)(=O)=O [Compound 20, (S)-3-(3-(4-chlorobenzyl)-2,6-dioxo-4-(4-(5-((5-difluoromethoxy)pyridin-2-yl)oxyphenyl)amino)-3,6-dihydropyrimidin-1(2H)-yl)-2-methyl-N-(sulfonyl)propionamide group] | stronger than that of the positive compound | 15.17** time | 10.1 to 50 | –
16 | C[C@@H](Cn1c(=O)cc(Nc2ccc(Oc3ccccn3)cc2)n(Cc2ccc(Cl)cc2)c1=O)C(=O)O [Compound 7] | stronger than that of the positive compound | 15.20** time | < 10 | reduction in the number of coughs at 3 mg/kg (KM mice; 60 min after administration): statistically significant (P<0.01) reduction in the number of coughs; cough suppressing efficacy at 10 mg/kg (KM mice; 60 min after administration): improved cough suppressing efficacy than the positive control drug; Number of Coughs (time) (KM mice; [3]): 23.34** time; Number of Coughs (time) (KM mice; [4]): 20.83**^Δ time; Number of Coughs (time) (KM mice; [5]): 15.00** time; Number of Coughs (time) (KM mice; [6]): 15.00** time; Number of Coughs (time) (KM mice; [7]): 38.13 time
17 | COC(=O)[C@@H](C)Cn1c(=O)cc(Nc2ccc(Oc3ccccn3)cc2)n(Cc2ccc(Cl)cc2)c1=O [Compound 8] | – | 25.00* time | 10.1 to 50 | Number of Coughs (time) (KM mice; [5]): 27.33* time
18 | C[C@@H](Cn1c(=O)cc(Nc2ccc(Oc3ncccn3)cc2)n(Cc2ccc(Cl)cc2)c1=O)C(=O)NS(C)(=O)=O [Compound 22] | – | 35.61 time | 50.1 to 100 | –
